≈ marks a conversion by molar mass, not a printed value.
Key:
Hepatitis C virus [1] = test: Antiviral activity against Hepatitis C virus genotype 1a infected in human HuH7 cells assessed as inhibition of replicon replication after 48 hrs by luciferase reporter gene assay; assay type: functional, cell-based, Hepacivirus hominis; conditions: subtype 1a, Huh-7, 48 h
[2] = Cytotoxicity against human HuH7 cells infected with Hepatitis C virus genotype 1b; assay type: cell-based, Huh-7
Hepatitis C virus [3] = test: Antiviral activity against Hepatitis C virus genotype 1b infected in human HuH7 cells assessed as inhibition of replicon replication after 48 hrs by luciferase reporter gene assay; assay type: functional, cell-based, Hepacivirus hominis; conditions: Huh-7, 48 h
[4] = Cmax in rat at 5 mg/kg, po; assay type: ADME, organism-based; set-up: dose 5 mg/kg, route oral; conditions: in vivo
Hepatitis C virus [5] = test: Ratio of EC50 for Hepatitis C virus genotype 1b harboring NS4B H94N mutant infected in human HuH7 cells to EC50 for wild type Hepatitis C virus genotype 1b infected in human HuH7 cells; assay type: functional, Hepacivirus hominis, Huh-7
[6] = Half life in rat hepatocytes; assay type: ADME, cell-based, Hepatocyte
[7] = Displacement of biotinylated anti-His antibody from C-terminal 6X His-tagged Hepatitis C virus genotype 1b NS4B expressed in baculovirus-infected Sf9 cells by microplate assay; set-up: species or system Hepatitis C virus subtype 1b
Hepatitis C virus [8] = test: Ratio of EC50 for Hepatitis C virus genotype 1b harboring NS4B V105M mutant infected in human HuH7 cells to EC50 for wild type Hepatitis C virus genotype 1b infected in human HuH7 cells; assay type: functional, Hepacivirus hominis, Huh-7
Hepatitis C virus [9] = test: Antiviral activity against Hepatitis C virus genotype 1b harboring NS4B V105M mutant infected in human HuH7 cells assessed as inhibition of replicon replication after 48 hrs by luciferase reporter gene assay; assay type: functional, cell-based, Hepacivirus hominis; conditions: Huh-7, 48 h
[10] = Oral bioavailability in rat at 5 mg/kg; assay type: ADME, organism-based; conditions: in vivo
[11] = Volume of distribution at steady state in rat at 1 mg/kg, iv and 5 mg/kg, po; assay type: ADME, organism-based; conditions: in vivo, read-out: Vdss
[12] = Clearance in rat at 1 mg/kg, iv; assay type: ADME, organism-based; set-up: dose 1 mg/kg, route intravenous; conditions: in vivo
Hepatitis C virus [13] = test: Antiviral activity against Hepatitis C virus genotype 2a; assay type: functional, Hepacivirus hominis
Hepatitis C virus [14] = test: Antiviral activity against Hepatitis C virus genotype 1b harboring NS4B H94N mutant infected in human HuH7 cells assessed as inhibition of replicon replication after 48 hrs by luciferase reporter gene assay; assay type: functional, cell-based, Hepacivirus hominis; conditions: Huh-7, 48 h
[15] = AUC (0 to 24 hrs) in rat at 5 mg/kg, po; assay type: ADME, organism-based; set-up: time < 24 hr, dose 5 mg/kg, route oral; conditions: plasma
[16] = Half life in human hepatocytes; assay type: ADME, cell-based, Hepatocyte
[17] = Kinetic solubility of the compound at pH 7.4; assay type: physicochemical; conditions: buffer, read-out: Kinetic_solubility

Row | Structure (SMILES) | EC50 (Hepatitis C virus [1]) [nM] | CC50 [2] [nM] | EC50 (Hepatitis C virus [3]) [nM] | also measured
1 | O=C(c1nn2c(C(F)(F)F)cc(C3CC3)cc2c1Cl)N1CCC2(OCC3(CC3)CO2)C(O)C1 (stereo not given) | 4.3 | > 50000 | 2.2 | 
2 | O=C(c1nc2c(C(F)(F)F)cc(Br)cn2c1Cl)N1CCC(N2CCOC2=O)CC1 | 31.4 |  | 45.5 | 
3 | O=C(c1nn2c(C(F)(F)F)cc(C3CC3)cc2c1Cl)N1CCCC2(C1)OCCCO2 | > 500 | > 50000 | > 500 | 
4 | O=C(c1nn2c(C(F)(F)F)cc(C3CC3)cc2c1Cl)N1CCC2(CC1)OCCO2 | 299 | > 50000 | 161 | 
5 | O=C(c1nn2c(C(F)(F)F)cc(C3CC3)cc2c1Cl)N1CCC2(CC1)OCCCO2 | 33.8 | > 50000 | 6.1 | 
6 | O=C(c1nn2c(C(F)(F)F)cc(C3CC3)cc2c1Cl)N1CCC2(CC1)OCCCCO2 | 46.3 | > 25000 | 8 | 
7 | CC1COC2(CCN(C(=O)c3nn4c(C(F)(F)F)cc(C5CC5)cc4c3Cl)CC2)OC1 | 7.4 | > 50000 | 1.2 | 
8 | CC1(C)COC2(CCN(C(=O)c3nn4c(C(F)(F)F)cc(C5CC5)cc4c3Cl)CC2)OC1 | 23.8 | > 25000 | 9.8 | 
9 | O=C(c1nn2c(C(F)(F)F)cc(C3CC3)cc2c1Cl)N1CCC2(CC1)OCC(c1ccccc1)CO2 | 42.2 | > 50000 | 209 | 
10 | O=C(c1nn2c(C(F)(F)F)cc(C3CC3)cc2c1Cl)N1CCC2(CC1)OCC(O)CO2 | 19.5 | > 50000 | 13.8 | 
11 | O=C1COC2(CCN(C(=O)c3nn4c(C(F)(F)F)cc(C5CC5)cc4c3Cl)CC2)OC1 | 18 | > 50000 | 19.1 | 
12 | O=C(c1nn2c(C(F)(F)F)cc(C3CC3)cc2c1Cl)N1CCC2(CC1)OCC1(CC1)CO2 | 9 | > 50000 | 4.1 | Cmax [4]: 254 ng/mL; Ratio EC50 (Hepatitis C virus [5]): 5.9; half-life [6]: < 0.25 h; IC50 [7]: 32 nM; Ratio EC50 (Hepatitis C virus [8]): 16.5; EC50 (Hepatitis C virus [9]): 67.6 nM; bioavailability [10]: 29%; Vd [11]: 4.5 L/kg; clearance [12]: 37.8 mL/min/kg; EC50 (Hepatitis C virus [13]): 6840 nM; EC50 (Hepatitis C virus [14]): 24.3 nM; AUC(0-t) at 24 h [15]: 693 ng·h/mL; half-life [16]: 0.5 h; solubility kinetic [17]: 105 µg/mL (≈ 223 µM)
13 | O=C(c1nn2c(C(F)(F)F)cc(C3CC3)cc2c1Cl)N1CCC2(CC1)OCC1(CCC1)CO2 | 5.1 | > 50000 | 7.6 | 
14 | O=C(c1nn2c(C(F)(F)F)cc(C3CC3)cc2c1Cl)N1CCC2(CC1)OCC1(CO2)CC(O)C1 | 2.2 | > 50000 | 14.2 | 
15 | O=C(c1nn2c(C(F)(F)F)cc(C3CC3)cc2c1Cl)N1CCC2(CC1)OCC1(COC1)CO2 | 14.4 | > 50000 | 3.2 | 
16 | O=C(c1nn2c(C(F)(F)F)cc(C3CC3)cc2c1Cl)N1CCC2(OCC3(CC3)CO2)[C@@H](O)C1 | 32.5 | > 50000 | 8.2 | 
17 | O=C(c1nn2c(C(F)(F)F)cc(C3CC3)cc2c1Cl)N1CCC2(OCC3(CC3)CO2)[C@H](O)C1 | 1.5 | > 50000 | 1.2 | Cmax [4]: 1130 ng/mL; Ratio EC50 (Hepatitis C virus [5]): 29.9; half-life [6]: 0.467 h; IC50 [7]: 10.2 nM; Ratio EC50 (Hepatitis C virus [8]): 143; EC50 (Hepatitis C virus [9]): 172 nM; bioavailability [10]: > 100%; Vd [11]: 0.8 L/kg; clearance [12]: 35.7 mL/min/kg; EC50 (Hepatitis C virus [13]): 11300 nM; EC50 (Hepatitis C virus [14]): 35.9 nM; AUC(0-t) at 24 h [15]: 2790 ng·h/mL; half-life [16]: 0.833 h; solubility kinetic [17]: 323 µg/mL (≈ 665 µM)
18 | O=C(c1nn2c(C(F)(F)F)cc(C3CC3)cc2c1Cl)N1CCC2(OCC3(CC3)CO2)C(=O)C1 | 5.1 | > 50000 | 3.8 | 
19 | O=C1NCC2(CCN(C(=O)c3nn4c(C(F)(F)F)cc(C5CC5)cc4c3Cl)CC2)O1 | 166 | > 50000 | 55.4 | 
20 | CN1CC2(CCN(C(=O)c3nn4c(C(F)(F)F)cc(C5CC5)cc4c3Cl)CC2)OC1=O | 2 | > 50000 | 3.4 | Cmax [4]: 269 ng/mL; Ratio EC50 (Hepatitis C virus [5]): 12.5; half-life [6]: 1.33 h; IC50 [7]: 23.4 nM; Ratio EC50 (Hepatitis C virus [8]): 6; EC50 (Hepatitis C virus [9]): 20.4 nM; bioavailability [10]: 72%; Vd [11]: 2.1 L/kg; clearance [12]: 56.5 mL/min/kg; EC50 (Hepatitis C virus [13]): 6840 nM; EC50 (Hepatitis C virus [14]): 42.7 nM; AUC(0-t) at 24 h [15]: 1060 ng·h/mL; half-life [16]: 1.1 h; solubility kinetic [17]: 267 µg/mL (≈ 584 µM)
21 | CCN1CC2(CCN(C(=O)c3nn4c(C(F)(F)F)cc(C5CC5)cc4c3Cl)CC2)OC1=O | 20.6 | > 50000 | 5.9 | 
22 | O=C1OC2(CCN(C(=O)c3nn4c(C(F)(F)F)cc(C5CC5)cc4c3Cl)CC2)CN1CCO | 23.2 | > 50000 | 78.5 | 
23 | O=C1OC2(CCN(C(=O)c3nn4c(C(F)(F)F)cc(C5CC5)cc4c3Cl)CC2)CN1CC1CC1 | 18.1 | > 50000 | 23.4 | 
24 | O=C1OC2(CCN(C(=O)c3nn4c(C(F)(F)F)cc(C5CC5)cc4c3Cl)CC2)CN1Cc1ccccc1 | 427 | > 50000 | 457 | 
25 | O=C1CC2(CCN(C(=O)c3nn4c(C(F)(F)F)cc(C5CC5)cc4c3Cl)CC2)CN1 | 441 | > 50000 | 1580 | 
26 | CN1CC2(CCN(C(=O)c3nn4c(C(F)(F)F)cc(C5CC5)cc4c3Cl)CC2)CC1=O | 184 | > 50000 | 69.2 | 
27 | CN1C[C@@]2(CCN(C(=O)c3nn4c(C(F)(F)F)cc(C5CC5)cc4c3Cl)C[C@H]2O)OC1=O | 14.5 | > 50000 | 7 | 
28 | CN1C[C@]2(CCN(C(=O)c3nn4c(C(F)(F)F)cc(C5CC5)cc4c3Cl)C[C@@H]2O)OC1=O | 3560 | > 50000 | 3990 | 
29 | CN1C[C@@]2(CCN(C(=O)c3nn4c(C(F)(F)F)cc(C5CC5)cc4c3Cl)C[C@@H]2O)OC1=O | 10.9 | > 50000 | 6.1 | Cmax [4]: 344 ng/mL; Ratio EC50 (Hepatitis C virus [5]): 27.3; half-life [6]: 2.2 h; IC50 [7]: 30.4 nM; Ratio EC50 (Hepatitis C virus [8]): 185; EC50 (Hepatitis C virus [9]): 1130 nM; bioavailability [10]: 49%; Vd [11]: 2 L/kg; clearance [12]: 25.7 mL/min/kg; EC50 (Hepatitis C virus [13]): 38000 nM; EC50 (Hepatitis C virus [14]): 175 nM; AUC(0-t) at 24 h [15]: 1530 ng·h/mL; half-life [16]: 2.05 h; solubility kinetic [17]: 310 µg/mL (≈ 656 µM)
30 | CN1C[C@]2(CCN(C(=O)c3nn4c(C(F)(F)F)cc(C5CC5)cc4c3Cl)C[C@H]2O)OC1=O | 16.7 | > 50000 | 7.2 | 
